For series [1] the following is noted: cited from earlier work.
The conditions of series [2]: cited from earlier work. This is another data set of the same source.
The conditions of series [3]: cited from earlier work. The source holds these as a separate data set.
For series [4] the following is noted: cited from earlier work. The source holds these as a separate data set.
The conditions of series [5]: cited from earlier work. The source holds these as a separate data set.
For series [6] the following is noted: cited from earlier work. The source holds these as a separate data set.
The test system of series [7] is Ruby red grapefruit trees. In words: Tree growth versus untreated control, field trial. The settings on record: in vivo. The protocol: (§1) Experimental testing was performed at the Florida Research Center for Agricultural Sustainability (“FLARES”) in Vero Beach, Fla. where the inventor, Robert C. Adair, Jr. serves as the executive director after having founded FLARES in 2004. Testing was conducted on a uniform block of ninety-six (96) Ruby red grapefruit trees planted on Dec. 19, 2018 grafted with USDA “US-897” citrus rootstock. The red grapefruit trees were randomly assigned one of eight (8) treatments in twelve (12) replicated plots using a Randomized Complete Block (“RCB”) design to help ensure homogeneous conditions between test subject trees. The red grapefruit trees were treated using liquid formulations applied to the foliage, the soil proximal to the rhizosphere of the plant, or applied to both the foliage and the soil. The micronutrient chelate formulations were applied monthly, the citric acid treatments were applied weekly, and the iron nitrate treatment was applied every two weeks.
Before being treated, the red grapefruit trees were allowed time to establish root systems. […] The caliper, canopy diameter, and height for each grapefruit tree was measured prior to treatment and subsequently measured every six (6) to nine (9) months thereafter for the two-and-half (2.5) year duration of the experiment.
Canopy areas were determined from aerial images captured by a camera-equipped unmanned aerial vehicle (“UAV”). […]

The subject of series [8] is CLas bacteria. Format: in vivo, Ruby red grapefruit trees. The protocol: as §1
(§2) Before being treated, the red grapefruit trees were allowed time to establish root systems. The red grapefruit trees were exposed to infection of the CLas bacteria through native populations of the Asian citrus psyllid insect, which is the vector that spreads citrus greening disease among trees. The caliper, canopy diameter, and height for each grapefruit tree was measured prior to treatment and subsequently measured every six (6) to nine (9) months thereafter for the two-and-half (2.5) year duration of the experiment.
Individual leaf samples were collected from each of the ninety-six (96) trees and submitted to Southern Gardens Diagnostic Laboratory in Clewiston, Fla. for Polymerase Chain Reaction (“PCR”) analysis to determine the presence of CLas bacteria DNA. The results were expressed cycle threshold (“Ct”) values, and the logarithm of the copy number per milligram of tissue values were recorded and statistically evaluated. In a PCR analysis, a positive reaction is detected by the accumulation of a fluorescent signal. The Ct value is defined as the number of cycles required for a fluorescent signal to cross a threshold (i.e., exceeds background levels). Ct values are inversely proportional to the amount of a target nucleic acid in the sample being tested such that the lower the Ct level, the greater the amount of target nucleic acid in the sample. Ct values less than 29 are considered strong positive reactions indicative of an abundance of the target nucleic acid, and Ct values of 38-40 are indicative of minimal amounts of target nucleic acid.

Series [9] has as its system citrus greening disease. Format: in vivo, Ruby red grapefruit trees. Conditions: for Percentage of Trees Showing HLB Leaf Patterns: 270 days after the first treatment application. The procedure: as §1, §2
Tree condition was scored visually according to the disease indexing (“DI”) technique taught by Gottwald, Aubert, and Xue-Yuan. See Gottwald, T. R., B. Aubert, and Z. Xue-Yuan, Preliminary Analysis of Citrus Greening (Huanglungbin) Epidemics in the People's Republic of China and French Reunion Island, PHYTOPATHOLOGY Vol. No. 79: 687-693 (1989). Disease indexing techniques divide an image of a plant into multiple sections and/or subsections, such as hemispheres and quadrants, and assign each image section a score from zero to four. The score reflects the observable severity of disease impact on a plant with a score of four indicating a plant with no visible symptoms and a score of zero indicating the highest level of severity. The score for all sections of a plant image are added together to establish an overall DI score for a particular plant image, such that a healthy vigorous tree with no symptoms has a DI of 16.
Table 5 below presents data from the visual inspection of the red grapefruit trees for the symptoms of citrus greening disease measured at 270 days after the first treatment application or approximately half way through the experiment.

Where [10] appears, read: treatments applied as in Table 1 (foliar and/or soil).
[11] abbreviates: treatments applied as in Table 1 (foliar and/or soil), listed as Fe(III)EDDHA.

Where two headings read alike, the source gives them in different places.

For the molecule `O=C(O)CC(O)(CC(=O)O)C(=O)O` [Citrate], the “LogK Zn2+ (stability constant)” value in [1] was 4.9. Further, the “LogK Fe3+ (stability constant)” value in series [2] is recorded as 11.85. Moreover, in [3], the “LogK Fe2+ (stability constant)” value is 3.2. Further, the “LogK Mn2+ (stability constant)” value in series [4] is recorded as 3.7. For the same molecule, in series [5], the “LogK Cu2+ (stability constant)” value is listed as 5.9. In addition, in series [6], the “LogK Ca2+ (stability constant)” value is 4.7.
As to `O=C(O)CN(CCN(CC(=O)O)CC(=O)O)CCN(CC(=O)O)CC(=O)O` [DTPA, diethylenetriaminepentaacetic acid], in series [1], the “LogK Zn2+ (stability constant)” value is 18.3. The “LogK Fe3+ (stability constant)” value in [2] is on record as 28.6. The “LogK Fe2+ (stability constant)” value in series [3] is 16.5. Besides, in series [4], the “LogK Mn2+ (stability constant)” value is listed as 15.1. The “LogK Cu2+ (stability constant)” value in series [5] was 21.1. Further, in series [6], the “LogK Ca2+ (stability constant)” value is recorded as 10.7.
Regarding `O=C(O)CN(CCN(CC(=O)O)CC(=O)O)CC(=O)O` [EDTA], in series [1], the “LogK Zn2+ (stability constant)” value is given as 16.5. In addition, in series [2], the “LogK Fe3+ (stability constant)” value is recorded as 25.1. Besides, the “LogK Mn2+ (stability constant)” value in series [4] was 13.6. The “LogK Cu2+ (stability constant)” value in series [5] is recorded as 18.8. Besides, the “LogK Ca2+ (stability constant)” value in series [6] is reported as 10.7.
In the case of `O=C([O-])C(NCCNC(C(=O)[O-])c1ccccc1[O-])c1ccccc1[O-].[Fe+3].[Na+]` (centres unmarked) [Fe-EDDHA], the “LogK Fe3+ (stability constant)” value in series [2] is 35.40. The “tree growth versus an untreated control” value in series [7] is “increased tree growth”. Also, in [8] (setting [10]), the “% of PCR Analysis Showing No CLas (Ct values = 40)” value (“% of PCR Analysis Showing No CLas” below) turned out to be 50%, the “Average Ct values based on qPCR analysis of citrus leaves” value (“Average Ct values based” for short) was determined as 34.9 and the “Log Copy #/1 mg of Leaf Tissue” value is 1.2. Further, in series [8] (setting [11]), the “% of PCR Analysis Showing No CLas” value was “highest percentage”, the “Average Ct values based” value is on record as “highest Ct values” and the “Log Copy #/1 mg of Leaf Tissue” value is “the lowest”. Besides, the “Percentage of Trees Showing HLB Leaf Patterns” value (“Percentage” for short) in series [9] (treatments as in Table 1) is 10%. For the same molecule, the “Percentage” value in [9] (treatments as in Table 1, listed as Fe(III)EDDHA) is given as “lowest percentage of observable symptoms”. For the same molecule, in [9] (foliar and soil application), the “symptoms of citrus greening disease, visually and analytically (CLas bacteria by PCR)” value is reported as “reduced the symptoms of citrus greening disease”. Besides, the “citrus greening disease leaf symptoms, visual inspection” value in series [9] (infected grapefruit trees) is listed as “reduced”.
As to `O=C(O)[C@H](O)[C@@H](O)[C@H](O)[C@H](O)CO` [Gluconate], the “LogK Zn2+ (stability constant)” value in series [1] was 1.7?. The “LogK Fe3+ (stability constant)” value in [2] is 10.0. The “LogK Fe2+ (stability constant)” value in [3] is reported as 1.0. In addition, the “LogK Cu2+ (stability constant)” value in series [5] is 36.0. Besides, in [6], the “LogK Ca2+ (stability constant)” value is on record as 1.2.
`O=C(O)CN(CCN(CC(=O)O)Cc1ccccc1O)Cc1ccccc1O` [HBED, N,N′-bis(2-hydroxyphenyl)ethylenediamine-N,N′-diacetic acid]: in [1], the “LogK Zn2+ (stability constant)” value is 18.3. For the same molecule, in [2], the “LogK Fe3+ (stability constant)” value was 39.0. Also, the “LogK Fe2+ (stability constant)” value in [3] is 17.3. In series [4], the “LogK Mn2+ (stability constant)” value is on record as 16.5. In addition, the “LogK Cu2+ (stability constant)” value in series [5] was 21.4. The “LogK Ca2+ (stability constant)” value in [6] was 9.3.
Take `O=C(O)CN(CCO)CCN(CC(=O)O)CC(=O)O` [HEDTA]: the “LogK Zn2+ (stability constant)” value in series [1] is on record as 14.6. Besides, in [2], the “LogK Fe3+ (stability constant)” value is given as 19.7. Besides, the “LogK Fe2+ (stability constant)” value in series [3] is recorded as 12.2. For the same molecule, the “LogK Mn2+ (stability constant)” value in series [4] is listed as 11.1. For the same molecule, the “LogK Cu2+ (stability constant)” value in [5] is on record as 17.4. Besides, the “LogK Ca2+ (stability constant)” value in series [6] was 8.1.
Take `O=C(O)CN(CCO)CCN(CC(=O)O)CC(=O)O` [HEEDTA]: the “LogK Zn2+ (stability constant)” value in series [1] is reported as 14.5. The “LogK Fe3+ (stability constant)” value in series [2] is 19.6. In [3], the “LogK Fe2+ (stability constant)” value is given as 12.2. The “LogK Mn2+ (stability constant)” value in series [4] was 10.7. Besides, in [5], the “LogK Cu2+ (stability constant)” value was 17.4. Besides, the “LogK Ca2+ (stability constant)” value in [6] is given as 8.0.
For the molecule `O=C(O)CC(NC(CC(=O)O)C(=O)O)C(=O)O` (centres unmarked) [IDHA, imidodisuccinic acid], the “LogK Zn2+ (stability constant)” value in [1] is 10.8. Moreover, in series [2], the “LogK Fe3+ (stability constant)” value was 15.2. Also, the “LogK Mn2+ (stability constant)” value in series [4] is listed as 7.7. The “LogK Cu2+ (stability constant)” value in series [5] is given as 13.1.
Consider `O=C(O)[C@@H](O)[C@@H](O)[C@H](O)[C@@H](O)C(=O)O` [Saccharate], for which, in [2], the “LogK Fe3+ (stability constant)” value is 24.5. Besides, the “LogK Mn2+ (stability constant)” value in [4] is listed as 8.5. Further, the “LogK Cu2+ (stability constant)” value in series [5] is on record as 14.0.
For the molecule Iron Citrate, the “LogK Fe2+ (stability constant)” value in series [3] was 3.2. In series [8] (at 30 ppm Fe, foliar), the “% of PCR Analysis Showing No CLas” value stood at 0%, the “Average Ct values based” value is on record as 29.7 and the “Log Copy #/1 mg of Leaf Tissue” value is listed as 2.6. Moreover, in [8] (at 60 ppm Fe, foliar), the “% of PCR Analysis Showing No CLas” value stood at 0%, the “Average Ct values based” value was found to be 31.2 and the “Log Copy #/1 mg of Leaf Tissue” value is 2.1. In addition, the “Percentage” value in [9] (at 30 ppm Fe, foliar) amounted to 44%. Also, the “Percentage” value in series [9] (at 60 ppm Fe, foliar) is listed as 50%.

Values taken from patent US20220394981A1, “MICRONUTRIENT FORMULATIONS THAT CONTROL PLANT PATHOGENS” (priority 2021, published 2022).
